From ChEMBL document CHEMBL3046190, “Acid promoted intramolecular formation of 3,5-anhydro-1,4-furano-7-ulose derivatives via the Wittig-cyclization procedure and their antimicrobial properties” (2013)
Values after ≈ are worked out from the molar mass of the structure shown. Active and inactive are the calls of the source. No cut-off for these calls is given here.

Assays:
Klebsiella pneumoniae = assay: Antimicrobial activity against Klebsiella pneumoniae CCM 2318 assessed as growth inhibition after 24 to 48 hr by broth microdilution technique; type: functional
Pseudomonas aeruginosa = assay: Antimicrobial activity against Pseudomonas aeruginosa ATCC 27853 assessed as growth inhibition after 24-48 hr by broth microdilution technique; type: functional
Enterococcus faecalis = assay: Antimicrobial activity against Enterococcus faecalis ATCC 29212 assessed as growth inhibition at 0.005 to 5 mg/ml after 24-48 hr by broth microdilution technique; type: functional, organism-based
Bacillus subtilis = assay: Antimicrobial activity against Bacillus subtilis ATCC 6633 assessed as growth inhibition after 24-48 hr by broth microdilution technique; type: functional
Escherichia coli = assay: Antimicrobial activity against Escherichia coli ATCC […] assessed as growth inhibition after 24-48 hr by broth microdilution technique; type: functional
Salmonella typhimurium = assay: Antimicrobial activity against Salmonella enterica subsp. enterica serovar Typhimurium CCM 5445 assessed as growth inhibition after 24-48 hr by broth microdilution technique; type: functional
Staphylococcus aureus = assay: Antimicrobial activity against Staphylococcus aureus ATCC 6538-P assessed as growth inhibition after 24-48 hr by broth microdilution technique; type: functional
Candida albicans = assay: Antimicrobial activity against Candida albicans ATCC 10239 assessed as growth inhibition after 24-48 hr by broth microdilution technique; type: functional

| SMILES | MIC (Klebsiella pneumoniae) | MIC (Pseudomonas aeruginosa) | growth inhibition (GI) (Enterococcus faecalis) | MIC (Bacillus subtilis) | MIC (Escherichia coli) | MIC (Salmonella typhimurium) | MIC (Staphylococcus aureus) | MIC (Candida albicans) |
| --- | --- | --- | --- | --- | --- | --- | --- | --- |
| COC(C)(CC1O[C@@H]2[C@H]3OC(C)(C)O[C@H]3O[C@H]12)OC (stereo partly drawn) | inactive | inactive | inactive | inactive | inactive | inactive | inactive | inactive |
| COC(C)(CC1O[C@H]2[C@H]3OC(C)(C)O[C@H]3O[C@H]12)OC (stereo partly drawn) | inactive | 750 µg/mL (≈ 2.73 mM) | inactive | 1500 µg/mL (≈ 5.47 mM) | inactive | 750 µg/mL (≈ 2.73 mM) | 3500 µg/mL (≈ 12.8 mM) | inactive |
| COC(C)(CC1O[C@H]2[C@H]3O[C@H](C(Cl)(Cl)Cl)O[C@H]3O[C@H]12)OC (stereo partly drawn) | 2500 µg/mL (≈ 6.88 mM) | 500 µg/mL (≈ 1.38 mM) | inactive | 500 µg/mL (≈ 1.38 mM) | 250 µg/mL (≈ 0.688 mM) | inactive | inactive | inactive |
| COC(C)(CC1O[C@@H]2[C@H]3O[C@@H](C(Cl)(Cl)Cl)O[C@H]3O[C@H]12)OC (stereo partly drawn) | inactive | 500 µg/mL (≈ 1.38 mM) | inactive | 500 µg/mL (≈ 1.38 mM) | 500 µg/mL (≈ 1.38 mM) | inactive | inactive | inactive |
| CC(=O)Cc1ccc(C=O)o1 [5-ACETYLMETHYL-FURFURAL] | 2500 µg/mL (≈ 16.4 mM) | 500 µg/mL (≈ 3.29 mM) | inactive | 500 µg/mL (≈ 3.29 mM) | 500 µg/mL (≈ 3.29 mM) | 750 µg/mL (≈ 4.93 mM) | inactive | 2500 µg/mL (≈ 16.4 mM) |
| COC(C)(CC1O[C@H]2[C@H]3O[C@@H](C(Cl)(Cl)Cl)O[C@H]3O[C@H]12)OC (stereo partly drawn) | 2500 µg/mL (≈ 6.88 mM) | 500 µg/mL (≈ 1.38 mM) | inactive | 2500 µg/mL (≈ 6.88 mM) | 500 µg/mL (≈ 1.38 mM) | inactive | inactive | inactive |
